{"source": "patent US20040029965A1", "about": "“Formulations for reducing or eliminating toxicity of enviromental hormones containing ursodeoxycholic acid” (priority 2000, published 2004)", "type_in_all_cases": "in vivo", "key": {"C57B1/6J mice [1]": {"tested_on": "C57B1/6J mice", "assay": "Blood (serum) biochemical changes in mice by a single subcutaneous injection of TCDD", "method": "(§1) Male C57B1/6J mice of 5 weeks old having the average weight of 18-22 g which had been bred in CRJ (Charles River in Japan) were purchased and used in this example as experimental animals. Those mice were acclimated under the constant breeding condition, i.e. the temperature of 24±1° C., the humidity of 60±10% and the light and darkness cycle of 12 hours, for one week and thereafter, utilized in the experiment.\n(§2) 2,3,7,8-tetrachlorodibenzo-p-dioxin (TCDD) dissolved in toluene (purity of 95% or more as a result of gas chromatography analysis), manufactured by Chem. Services Inc. in USA, was volatilized with nitrogen to obtain powder. The obtained powder was dissolved in a mixed solvent containing acetone and corn oil with a volume ratio of 1:6. The resulting solution each containing 110, 27.5 and 6.9 μg/kg of TCDD was subcutaneously injected to mice at a volume of 5 ml per body weight. […] The mice were supplied with the feed from 10 days before (pre-administration) to 60 days after administration of TCDD (post-administration).\n(§3) Upon completion of the experiment for 60 days, the experimental animals were fasted for 24 hours and anesthetized with ether. Then, they were abdominally incised and blood was gathered from abdominal vena cava. They were sacrificed by the release of blood. Liver, kidneys, testes and epididymides were extracted and all the extracted organs were weighed. Only the testes were separately kept and observed under optical and electron microscopes. For biochemical finding test, serum was separated from blood with a centrifuge and the separated serum was analyzed with an automated blood biochemical analyzer, Dimension (Dupont, USA). Blood was put to another blood gathering bottle and then, analyzed with an automated blood cell analyzer, Celldyn (Abbott, USA).\n(§4) The results are expressed as Mean±Standard Deviation values. For statistical analysis of the body weight, feed and water uptake, biochemical findings, hematological findings and the weight of organ in an acute toxicity test, verification was performed by one way analysis of variance (ANOVA) in case of equal distribution. In case significance was recognized in ANOVA, the Student's t-test was performed in the levels of p<0.05 and p<0.01.\nFor biochemical findings in the serum, the levels of glucose (GLU), GOT, GPT, Triglyceride (TG), high density lipoprotein (HDL-C), low density lipoprotein (LDL-C) and alkaline phosphatase (ALP) in serum were measured and the results are shown in the following."}, "C57B1/6J mice [2]": {"tested_on": "C57B1/6J mice", "assay": "Organ weights (liver, kidneys, testes, epididymides) of mice after a single subcutaneous injection of TCDD", "method": "as §1, §2, §3, §4\nThe organs, i.e. liver, kidneys, testes and epididymides, were weighed and the results are shown in the following."}, "C57B1/6J mice [3]": {"tested_on": "C57B1/6J mice", "assay": "Optical microscopy of testes (histopathological findings)", "details": "TCDD 27.5 μg/kg alone; FIG. 2", "method": "as §2, §3\nThe extracted testes were fixed in 10% neutralized formalin buffer for 24 hours and washed with the flowing water. It was subsequently dehydrated with ethanol and cleared with xylene and then, embedded with paraffin. It was sectioned with microtome (microm is HM 440E) to a thickness of 2-3 μm and then, double stained with hematoxylin and eosin to observe under an optical microscope."}}, "data": [{"smiles": "Clc1cc2c(cc1Cl)Oc1cc(Cl)c(Cl)cc1O2", "note": "[TCDD, 2,3,7,8-tetrachlorodibenzo-p-dioxin]", "values": [{"measurement": "ALP", "setting": "C57B1/6J mice [1]; TCDD 6.9 μg/kg alone", "result": "69.67 ± 8.80", "unit": "IU/l"}, {"measurement": "GLU", "setting": "C57B1/6J mice [1]; TCDD 6.9 μg/kg alone", "result": "96.00 ± 15.15", "unit": "mg/dL"}, {"measurement": "GOT", "setting": "C57B1/6J mice [1]; TCDD 6.9 μg/kg alone", "result": "55.16 ± 6.65", "unit": "IU/l"}, {"measurement": "GPT", "setting": "C57B1/6J mice [1]; TCDD 6.9 μg/kg alone", "result": "21.66 ± 5.39", "unit": "IU/l"}, {"measurement": "HDL-C", "setting": "C57B1/6J mice [1]; TCDD 6.9 μg/kg alone", "result": "39.29 ± 9.38", "unit": "mg/dL"}, {"measurement": "LDL-C", "setting": "C57B1/6J mice [1]; TCDD 6.9 μg/kg alone", "result": "24.43 ± 11.81", "unit": "mg/dL"}, {"measurement": "TG", "setting": "C57B1/6J mice [1]; TCDD 6.9 μg/kg alone", "result": "76.14 ± 14.03", "unit": "mg/dL"}, {"measurement": "ALP", "setting": "C57B1/6J mice [1]; TCDD 27.5 μg/kg alone", "result": "65.4 ± 19.05", "unit": "IU/l"}, {"measurement": "GLU", "setting": "C57B1/6J mice [1]; TCDD 27.5 μg/kg alone", "result": "28.20 ± 8.23", "unit": "mg/dL"}, {"measurement": "GOT", "setting": "C57B1/6J mice [1]; TCDD 27.5 μg/kg alone", "result": "230.40 ± 72.90", "unit": "IU/l"}, {"measurement": "GPT", "setting": "C57B1/6J mice [1]; TCDD 27.5 μg/kg alone", "result": "70.4 ± 23.46", "unit": "IU/l"}, {"measurement": "HDL-C", "setting": "C57B1/6J mice [1]; TCDD 27.5 μg/kg alone", "result": "21.80 ± 6.76", "unit": "mg/dL"}, {"measurement": "LDL-C", "setting": "C57B1/6J mice [1]; TCDD 27.5 μg/kg alone", "result": "43.80 ± 14.99", "unit": "mg/dL"}, {"measurement": "TG", "setting": "C57B1/6J mice [1]; TCDD 27.5 μg/kg alone", "result": "92.67 ± 16.79", "unit": "mg/dL"}, {"measurement": "Left epididymis Relative weight", "setting": "C57B1/6J mice [2]; TCDD 6.9 μg/kg alone", "result": "0.101 ± 0.012", "unit": "%"}, {"measurement": "Left epididymis Weight", "setting": "C57B1/6J mice [2]; TCDD 6.9 μg/kg alone", "result": "0.023 ± 0.005", "unit": "g"}, {"measurement": "Left kidney Relative weight", "setting": "C57B1/6J mice [2]; TCDD 6.9 μg/kg alone", "result": "0.508 ± 0.050", "unit": "%"}, {"measurement": "Left kidney Weight", "setting": "C57B1/6J mice [2]; TCDD 6.9 μg/kg alone", "result": "0.115 ± 0.018", "unit": "g"}, {"measurement": "Left testis Relative weight", "setting": "C57B1/6J mice [2]; TCDD 6.9 μg/kg alone", "result": "0.296 ± 0.030", "unit": "%"}, {"measurement": "Left testis Weight", "setting": "C57B1/6J mice [2]; TCDD 6.9 μg/kg alone", "result": "0.067 ± 0.011", "unit": "g"}, {"measurement": "Liver Relative weight", "setting": "C57B1/6J mice [2]; TCDD 6.9 μg/kg alone", "result": 4.092, "unit": "%"}, {"measurement": "Liver Weight", "setting": "C57B1/6J mice [2]; TCDD 6.9 μg/kg alone", "result": "0.935 ± 0.173", "unit": "g"}, {"measurement": "Right epididymis Relative weight", "setting": "C57B1/6J mice [2]; TCDD 6.9 μg/kg alone", "result": "0.110 ± 0.027", "unit": "%"}, {"measurement": "Right epididymis Weight", "setting": "C57B1/6J mice [2]; TCDD 6.9 μg/kg alone", "result": "0.025 ± 0.007", "unit": "g"}, {"measurement": "Right kidney Relative weight", "setting": "C57B1/6J mice [2]; TCDD 6.9 μg/kg alone", "result": "0.513 ± 0.066", "unit": "%"}, {"measurement": "Right kidney Weight", "setting": "C57B1/6J mice [2]; TCDD 6.9 μg/kg alone", "result": "0.117 ± 0.022", "unit": "g"}, {"measurement": "Right testis Relative weight", "setting": "C57B1/6J mice [2]; TCDD 6.9 μg/kg alone", "result": "0.285 ± 0.035", "unit": "%"}, {"measurement": "Right testis Weight", "setting": "C57B1/6J mice [2]; TCDD 6.9 μg/kg alone", "result": "0.65 ± 0.010", "unit": "g"}, {"measurement": "Left epididymis Relative weight", "setting": "C57B1/6J mice [2]; TCDD 27.5 μg/kg alone", "result": "0.124 ± 0.024", "unit": "%"}, {"measurement": "Left epididymis Weight", "setting": "C57B1/6J mice [2]; TCDD 27.5 μg/kg alone", "result": "0.021 ± 0.006", "unit": "g"}, {"measurement": "Left kidney Relative weight", "setting": "C57B1/6J mice [2]; TCDD 27.5 μg/kg alone", "result": "0.625 ± 0.037", "unit": "%"}, {"measurement": "Left kidney Weight", "setting": "C57B1/6J mice [2]; TCDD 27.5 μg/kg alone", "result": "0.101 ± 0.012", "unit": "g"}, {"measurement": "Left testis Relative weight", "setting": "C57B1/6J mice [2]; TCDD 27.5 μg/kg alone", "result": "0.356 ± 0.051", "unit": "%"}, {"measurement": "Left testis Weight", "setting": "C57B1/6J mice [2]; TCDD 27.5 μg/kg alone", "result": "0.058 ± 0.014", "unit": "g"}, {"measurement": "Liver Relative weight", "setting": "C57B1/6J mice [2]; TCDD 27.5 μg/kg alone", "result": 4.506, "unit": "%"}, {"measurement": "Liver Weight", "setting": "C57B1/6J mice [2]; TCDD 27.5 μg/kg alone", "result": "0.734 ± 0.151", "unit": "g"}, {"measurement": "Right epididymis Relative weight", "setting": "C57B1/6J mice [2]; TCDD 27.5 μg/kg alone", "result": "0.129 ± 0.027", "unit": "%"}, {"measurement": "Right epididymis Weight", "setting": "C57B1/6J mice [2]; TCDD 27.5 μg/kg alone", "result": "0.021 ± 0.006", "unit": "g"}, {"measurement": "Right kidney Relative weight", "setting": "C57B1/6J mice [2]; TCDD 27.5 μg/kg alone", "result": "0.571 ± 0.030", "unit": "%"}, {"measurement": "Right kidney Weight", "setting": "C57B1/6J mice [2]; TCDD 27.5 μg/kg alone", "result": "0.092 ± 0.012", "unit": "g"}, {"measurement": "Right testis Relative weight", "setting": "C57B1/6J mice [2]; TCDD 27.5 μg/kg alone", "result": "0.352 ± 0.059", "unit": "%"}, {"measurement": "Right testis Weight", "setting": "C57B1/6J mice [2]; TCDD 27.5 μg/kg alone", "result": "0.058 ± 0.015", "unit": "g"}, {"measurement": "seminiferous tubules, optical microphotograph", "setting": "C57B1/6J mice [3]", "result": "remarkably reduced spermatogenesis was observed"}]}]}
